± gives the standard deviation of the averaged measurements.
Experiments:
ERLOTINIB [1] = compound: T1, C#Cc1cccc(Nc2ncnc3cc(OCCOC)c(OCCOC)cc23)c1 [ERLOTINIB]; assay: area under dose-response curve of surviving fraction (unscaled, Aref=0) (surviving fraction x log10(nM)); higher = more resistant; conditions: exposure time: 5 days; dose range 0.5-1000 nM
Procedure, shortened: (§1)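 Surviving fractions were fitted by 3-parameter logistic regression in the drc R package to give dose-response survival curves. They came from tumour cell lines treated for five days with eight inhibitor concentrations from 0.5 to 1000 nM and read by CellTiter-Glo luminescence against DMSO-only wells. The area under the curve is the unscaled activity area. It was calculated over log10 dose with Aref = 0.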

VINORELBINE = compound: CCC1=C[C@@H]2CN(C1)Cc1c([nH]c3ccccc13)[C@@](C(=O)OC)(c1cc3c(cc1OC)N(C)[C@H]1[C@@](O)(C(=O)OC)[C@H](OC(C)=O)[C@]4(CC)C=CCN5CC[C@]31[C@@H]54)C2 [VINORELBINE]; assay: as above; conditions: exposure time: 5 days; dose range 0.5-1000 nM
Procedure, shortened: as §1

PLX-4720 = compound: CCCS(=O)(=O)Nc1ccc(F)c(C(=O)c2c[nH]c3ncc(Cl)cc23)c1F [PLX-4720]; assay: as above; conditions: exposure time: 5 days; dose range 0.5-1000 nM
Procedure, shortened: as §1

SUNITINIB = compound: CCN(CC)CCNC(=O)c1c(C)[nH]c(/C=C2\C(=O)Nc3ccc(F)cc32)c1C [SUNITINIB]; assay: as above; conditions: exposure time: 5 days; dose range 0.5-1000 nM
Procedure, shortened: as §1

METHOTREXATE [2] = compound: T2, CN(Cc1cnc2nc(N)nc(N)c2n1)c1ccc(C(=O)N[C@@H](CCC(=O)O)C(=O)O)cc1 [METHOTREXATE]; assay: as above; conditions: exposure time: 5 days; dose range 0.5-1000 nM
Procedure, shortened: as §1

EVEROLIMUS [3] = compound: T3, CO[C@H]1C[C@@H]2CC[C@@H](C)[C@@](O)(O2)C(=O)C(=O)N2CCCC[C@H]2C(=O)O[C@H]([C@H](C)C[C@@H]2CC[C@@H](OCCO)[C@H](OC)C2)CC(=O)[C@H](C)/C=C(\C)[C@@H](O)[C@@H](OC)C(=O)[C@H](C)C[C@H](C)/C=C/C=C/C=C/1C [EVEROLIMUS]; assay: as above; conditions: exposure time: 5 days; dose range 0.5-1000 nM
Procedure, shortened: as §1

AZD4547 = compound: COc1cc(CCc2cc(NC(=O)c3ccc(N4CC(C)NC(C)C4)cc3)n[nH]2)cc(OC)c1 [AZD4547]; assay: as above; conditions: exposure time: 5 days; dose range 0.5-1000 nM
Procedure, shortened: as §1

ETOPOSIDE = compound: COc1cc([C@@H]2c3cc4c(cc3[C@@H](O[C@@H]3O[C@@H]5CO[C@@H](C)O[C@H]5[C@H](O)[C@H]3O)[C@H]3COC(=O)[C@H]23)OCO4)cc(OC)c1O [ETOPOSIDE]; assay: as above; conditions: exposure time: 5 days; dose range 0.5-1000 nM
Procedure, shortened: as §1

[4] = compound: Cc1nc(Nc2n[nH]c3c2CN(C(=O)N[C@H](CN(C)C)c2ccccc2)C3(C)C)c2sccc2n1; assay: as above; conditions: exposure time: 5 days; dose range 0.5-1000 nM
Procedure, shortened: as §1

MK2206 [5] = compound: T4, NC1(c2ccc(-c3nc4ccn5c(=O)[nH]nc5c4cc3-c3ccccc3)cc2)CCC1 [MK2206]; assay: as above; conditions: exposure time: 5 days; dose range 0.5-1000 nM
Procedure, shortened: as §1

GEMCITABINE = compound: Nc1ccn([C@@H]2O[C@H](CO)[C@@H](O)C2(F)F)c(=O)n1 [GEMCITABINE]; assay: as above; conditions: exposure time: 5 days; dose range 0.5-1000 nM
Procedure, shortened: as §1

[6] = compound: O=C(NOCC1CC1)c1ccc(F)c(F)c1Nc1ccc(I)cc1Cl; assay: as above; conditions: exposure time: 5 days; dose range 0.5-1000 nM
Procedure, shortened: as §1

ERLOTINIB [7] = compound: T1, ERLOTINIB; assay: surviving fraction relative to DMSO-only wells; higher = less growth inhibition; conditions: exposure time: 5 days
Procedure, shortened: (§2)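 In 384-well plates, 250–500 log-phase tumour cells per well were given 24 hours before five days of continuous exposure to inhibitors at 0.5, 1, 5, 10, 50, 100, 500 and 1000 nM. Surviving fraction is luminescence from CellTiter-Glo, normalised to the median of wells containing DMSO alone. Reading took place after 10 minutes at room temperature.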

METHOTREXATE [8] = compound: T2, METHOTREXATE; assay: as above; conditions: exposure time: 5 days
Procedure, shortened: as §2

EVEROLIMUS [9] = compound: T3, EVEROLIMUS; assay: as above; conditions: exposure time: 5 days
Procedure, shortened: as §2

MK2206 [10] = compound: T4, MK2206; assay: as above; conditions: exposure time: 5 days
Procedure, shortened: as §2

Question: What does the source list for HS57T LUNG?
Answer: area under dose-response curve (ERLOTINIB [1]): 3.44; area under dose-response curve (VINORELBINE): 1.21; area under dose-response curve (PLX-4720): 3.1; area under dose-response curve (SUNITINIB): 2.84; area under dose-response curve (METHOTREXATE [2]): 2.04; area under dose-response curve (EVEROLIMUS [3]): 1.54; area under dose-response curve (AZD4547): 2.66; area under dose-response curve (ETOPOSIDE): 2.88; area under dose-response curve [4]: 1.13; area under dose-response curve (MK2206 [5]): 3.09; area under dose-response curve (GEMCITABINE): 1.27; area under dose-response curve [6]: 2.83

Question: With CCK81 LARGE INTESTINE as the test system, how does the surviving fraction (ERLOTINIB [7]; 0.5 nM) read?
Answer: 0.779 ± 0.2

Question: And the surviving fraction (ERLOTINIB [7]; 5 nM)?
Answer: 0.794 ± 0.077

Question: What about the surviving fraction (ERLOTINIB [7]; 10 nM) of the same test system?
Answer: 0.774 ± 0.13

Question: What about the surviving fraction (ERLOTINIB [7]; 50 nM) of the same test system?
Answer: 0.774 ± 0.11

Question: What about the surviving fraction (ERLOTINIB [7]; 100 nM) of the same test system?
Answer: 0.749 ± 0.065

Question: What about the surviving fraction (ERLOTINIB [7]; 500 nM) of the same test system?
Answer: 0.19 ± 0.012

Question: What about the surviving fraction (ERLOTINIB [7]; 1000 nM) of the same test system?
Answer: 0.78 ± 0.031

Question: What about the surviving fraction (METHOTREXATE [8]; 0.5 nM) of the same test system?
Answer: 0.75 ± 0.13

Question: And the surviving fraction (METHOTREXATE [8]; 1 nM)?
Answer: 0.843 ± 0.061

Question: And the surviving fraction (METHOTREXATE [8]; 5 nM)?
Answer: 0.716 ± 0.15

Question: What about the surviving fraction (METHOTREXATE [8]; 10 nM) of the same test system?
Answer: 0.697 ± 0.029

Question: What about the surviving fraction (METHOTREXATE [8]; 50 nM) of the same test system?
Answer: 0.701 ± 0.054

Question: What about the surviving fraction (METHOTREXATE [8]; 100 nM) of the same test system?
Answer: 0.663 ± 0.083

Question: What about the surviving fraction (METHOTREXATE [8]; 500 nM) of the same test system?
Answer: 0.697 ± 0.077

Question: And the surviving fraction (METHOTREXATE [8]; 1000 nM)?
Answer: 0.714 ± 0.095

Question: And the surviving fraction (EVEROLIMUS [9]; 0.5 nM)?
Answer: 0.812 ± 0.075

Question: And the surviving fraction (EVEROLIMUS [9]; 1 nM)?
Answer: 0.754 ± 0.031

Question: And the surviving fraction (EVEROLIMUS [9]; 5 nM)?
Answer: 0.701 ± 0.11

Question: What about the surviving fraction (EVEROLIMUS [9]; 10 nM) of the same test system?
Answer: 0.711 ± 0.14

Question: And the surviving fraction (EVEROLIMUS [9]; 50 nM)?
Answer: 0.715 ± 0.041

Question: What about the surviving fraction (EVEROLIMUS [9]; 100 nM) of the same test system?
Answer: 0.756 ± 0.048

Question: What about the surviving fraction (EVEROLIMUS [9]; 500 nM) of the same test system?
Answer: 0.551 ± 0.1

Question: And the surviving fraction (EVEROLIMUS [9]; 1000 nM)?
Answer: 0.5123 ± 0.004

Question: What about the surviving fraction (MK2206 [10]; 0.5 nM) of the same test system?
Answer: 0.868 ± 0.21

Question: And the surviving fraction (MK2206 [10]; 1 nM)?
Answer: 0.793 ± 0.089

Question: What about the surviving fraction (MK2206 [10]; 5 nM) of the same test system?
Answer: 0.751 ± 0.14

Question: What about the surviving fraction (MK2206 [10]; 10 nM) of the same test system?
Answer: 0.809 ± 0.053

Question: What about the surviving fraction (MK2206 [10]; 50 nM) of the same test system?
Answer: 0.728 ± 0.075

Question: And the surviving fraction (MK2206 [10]; 100 nM)?
Answer: 0.798 ± 0.098

Question: What about the surviving fraction (MK2206 [10]; 500 nM) of the same test system?
Answer: 0.944 ± 0.13

Question: What about the surviving fraction (MK2206 [10]; 1000 nM) of the same test system?
Answer: 0.806 ± 0.049

Question: And the “area under dose-response curve” value (ERLOTINIB [1])?
Answer: 2.36

Question: What about the “area under dose-response curve” value (METHOTREXATE [2]) of the same test system?
Answer: 2.37

Question: What about the “area under dose-response curve” value (EVEROLIMUS [3]) of the same test system?
Answer: 2.28

Question: What about the “area under dose-response curve” value (MK2206 [5]) of the same test system?
Answer: 2.67

Question: What about the “area under dose-response curve” value (GEMCITABINE) of the same test system?
Answer: 1.48

— the supplement of paper PMC6045584
